Test results published in article PMC6916019, “In vitro anti-malarial efficacy of chalcones: cytotoxicity profile, mechanism of action and their effect on erythrocytes” (Malaria Journal, 2019).

Experiments:
[1] = system: P. falciparum chloroquine resistant strain (RKL-9); assay: WHO Mark III schizont maturation inhibition assay, chloroquine resistant strain; assay type: cell-based, Plasmodium falciparum; conditions: for % Schizont maturation inhibition ± SD (RKL-9): Conc. = 6.25 μg/mL; for % Schizont maturation inhibition ± SD (RKL-9) / P. falciparum Chloroquine^R Strain (RKL-9) IC50 / P. falciparum Chloroquine^R Strain (RKL-9) IC90: 24 h; for Selective index (SI) P.falciparum chloroquine^R (RKL-9): SI = CC50 (HeLa)/IC50 (RKL-9); for Resistance Index (RI) IC50 (RKL-9)/IC50 (MRC-2): ratio of IC50 resistant / sensitive strain; for P. falciparum Chloroquine^R Strain (RKL-9) IC50 / P. falciparum Chloroquine^R Strain (RKL-9) IC90: schizont maturation, ring stage
Method: (§1) These strains were perpetuated in vitro in continuous culture according to the method of Trager and Jensen with slight modifications. Briefly, both sensitive and resistant strains of P. falciparum were maintained in A+ erythrocytes in RPMI-1640 medium (having glutamine, but without any sodium bicarbonate) comprising 1.00 g of dextrose, 5.94 g of HEPES buffer, 40.00 mg of gentamycin. Additionally supplemented with 5% sodium bicarbonate and 10% (v/v) inactivated human AB+ serum then incubated in gas mixture of 5% CO2, 5% O2 and 90% N2 at 37 °C. Parasitized erythrocytes at initial 5% haematocrit were suspended in above mentioned culture medium and parasitaemia was regularly checked to maintain level between 2 and 4% with further sub-culturing for parasitaemia beyond 5%. Growth and multiplication of parasite was monitored by microscopy using Giemsa-stained slides.
(§2) To obtain ring stages of the parasite, the cultures were synchronized using D-sorbitol. The cultures, with majority of ring stages, were treated with equal volume of aqueous 5% D-sorbitol for 5 min and then after centrifugation pellet were suspended in complete medium and fresh erythrocytes synchronized culture with 1% parasitaemia and 5% haematocrit were used for compound concentration response assay.
(§3) The concentration of each test compound needed to hinder multiplication of parasites by 50% (IC50) against P. falciparum strains were obtained through concentration response assay performed in 96-well sterile tissue culture plates. Synchronized parasite cultures were applied to different doses of each compound. Dilutions were performed in gentamycin-free culture medium, and incubated at 37 °C having gaseous mixture (5% CO2, 5% O2 and 90% N2) supply for 24 h. The results were expressed as IC50 values computed from HN-NonLin Regression analysis, as well as mean percentage inhibition ± standard error examined by thick smear Giemsa stained slides. %ParasiteInhibition29,30=100-TotalnumberofSchizontsintestwells/TotalnumberofSchizontsincontrolwell∗100
(§4) Parasite at ring stage was used for compound concentration response assay with parasitaemia of 1% at 5% haematocrit. […] The IC50 and IC90 values of all compounds were determined and the resistance index between the two sensitive and resistant strains was calculated (Table 2). […] The percentage inhibition in schizont maturation was also calculated after incubation of ring stage P. falciparum till 24 h at the same range of drug concentrations (Table 3).

[2] = system: P. falciparum chloroquine sensitive strain (MRC-2); assay: microbe, parasite or virus in culture; conditions: for % Schizont maturation inhibition ± SD (MRC-2): Conc. = 6.25 μg/mL; for % Schizont maturation inhibition ± SD (MRC-2) / P. falciparum Chloroquine^s Strain (MRC-2) IC50 / P. falciparum Chloroquine^s Strain (MRC-2) IC90: 24 h; for Selective index (SI) P.falciparum chloroquine^s (MRC-2): SI = CC50 (HeLa)/IC50 (MRC-2); for P. falciparum Chloroquine^s Strain (MRC-2) IC50 / P. falciparum Chloroquine^s Strain (MRC-2) IC90: schizont maturation, ring stage
Method: as §1, §2, §3, §4

[3] = system: HeLa cell line
Method: Cytotoxicity of the compounds on mammalian cells were accomplished employing HeLa cell line (NCCS, Pune) cultured in DMEM supplemented with 10% FBS by the MTT (3-(4,5-dimethylthiazol-2-yl)-2,5-diphenyltetrazolium bromide) microenzymatic method with certain modifications [32]. Briefly, cells (10^4 cells/200 μL/well) were seeded into 96-well flat-bottom sterile tissue culture plates in complete medium. After 24 h of seeding, the test compounds at different dilutions were added and kept for another 24 h in a humidified chamber with 5% CO2 at 37 °C. Twenty microlitres of MTT (5.00 mg/mL in 1XPBS) stock solution were pipetted into each well, mixed and incubated for at least 3–4 h. After incubation, the plates were centrifuged at 1500 rpm for 5 min. The supernatant was disposed cautiously and 100 μL of DMSO were added to each well to lyse the cell and dissolve the insoluble purple formazan product into a coloured solution. Absorbance was taken at 570 nm to determine formazan formation as a measurement of cell viability. Experiments were performed in triplicate.

SMILES	% Schizont maturation inhibition ± SD (RKL-9) [1] [%]	Selective index (SI) P.falciparum chloroquine^R (RKL-9) [1]	Resistance Index (RI) IC50 (RKL-9)/IC50 (MRC-2) [1]	P. falciparum Chloroquine^R Strain (RKL-9) IC50 [1] [µg/mL]	P. falciparum Chloroquine^R Strain (RKL-9) IC90 [1] [µg/mL]	% Schizont maturation inhibition ± SD (MRC-2) [2] [%]	Selective index (SI) P.falciparum chloroquine^s (MRC-2) [2]	P. falciparum Chloroquine^s Strain (MRC-2) IC50 [2] [µg/mL]	P. falciparum Chloroquine^s Strain (MRC-2) IC90 [2] [µg/mL]	HeLa Cell CC50 [3] [µg/mL]
COc1cc(OC)c(C(=O)/C=C/c2ccc(OC)c(OC)c2)c(OC)c1 [Chalcone 1]	49.66 ± 25.46	18.96	0.68	0.23	1.42	82.43 ± 20.51	12.82	0.34	5.54	4.36
COc1ccc(OC)c(C(=O)C=Cc2ccc3c(c2)OCO3)c1 [Chalcone 3]	63.71 ± 2.83	26.86	1.71	0.29	1.15	59.26 ± 4.95	45.82	0.17	0.75	7.79
COc1cc(C(=O)C=Cc2ccc(F)cc2)cc(OC)c1OC [Chalcone 4]	57.69 ± 7.78	1.65	3.40	0.51	2.26	47.48 ± 17.68	5.60	0.15	0.40	0.84
COc1cc(C(=O)C=Cc2ccc(N(C)C)cc2)cc(OC)c1OC [Chalcone 5]	40 ± 20.51	36.74	1.43	0.23	0.92	58.65 ± 7.78	52.81	0.16	1.08	8.45
COc1cc(C(=O)/C=C/c2ccc3c(c2)OCO3)cc(OC)c1OC [Chalcone 8]	77.78 ± 1.41	8.46	0.90	0.26	5.31	75.17 ± 12.02	7.59	0.29	1.01	2.20
O=C(/C=C/c1cc2ccccc2[nH]1)c1ccc(I)cc1 [Chalcone 10]	49.62 ± 19.79	9.90	0.95	0.19	0.81	64.44 ± 9.90	9.40	0.20	0.89	1.88
